Species on record: Rattus norvegicus
Assay: Open TG-GATES - Regimen: Daily Repeat
Format: toxicity, organism-based, Sprague-Dawley
Parameters: regimen Daily Repeat, gender Male, age 6 weeks
Conditions: in vivo, po, 30 mg/kg, route gavage, dose level Middle; for APTT / Bas / Eos / Fbg / Hb / Ht / Lym / MCH / MCHC / MCV / Mono / Neu / PT / Plat / RBC / Ret / WBC: tissue Blood; for KIDNEY_L / KIDNEY_R / KIDNEY_TOTAL: tissue Kidney; for LIVER: tissue Liver; for A/G / ALP / ALT / AST / BUN / CRE / Ca / Cl / DBIL / GLC / IP / K / LDH / Na / PL / RALB / TBIL / TC / TG / TP / gamma-GTP: tissue Plasma

OCCOCCN1CCN(C(c2ccccc2)c2ccc(Cl)cc2)CC1 (configuration not stated) [HYDROXYZINE]
TERMINAL_BW (72 h, time 3 day): 226.2 g
APTT (72 h, time 3 day): 15.8 s
Bas (72 h, time 3 day): 0%
Eos (72 h, time 3 day): 1%
Fbg (72 h, time 3 day): 261.2 mg/dL
Hb (72 h, time 3 day): 13.3 g/dL
Ht (72 h, time 3 day): 40%
Lym (72 h, time 3 day): 77.6%
MCH (72 h, time 3 day): 21.9 pg
MCHC (72 h, time 3 day): 33.3%
MCV (72 h, time 3 day): 65.7 fL
Mono (72 h, time 3 day): 3%
Neu (72 h, time 3 day): 17.8%
PT (72 h, time 3 day): 15.3 s
Plat (72 h, time 3 day): 120.2 x10_4/uL
RBC (72 h, time 3 day): 609.6 x10_4/ul
Ret (72 h, time 3 day): 6.9%
WBC (72 h, time 3 day): 89.6 x10_2/uL
KIDNEY_L (72 h, time 3 day): 1 g
KIDNEY_R (72 h, time 3 day): 1 g
KIDNEY_TOTAL (72 h, time 3 day): 2 g
LIVER (72 h, time 3 day): 10.9 g
A/G (72 h, time 3 day): 0.9
ALP (72 h, time 3 day): 1463.8 IU/L
ALT (72 h, time 3 day): 40.4 IU/L
AST (72 h, time 3 day): 66.6 IU/L
BUN (72 h, time 3 day): 16.8 mg/dL
CRE (72 h, time 3 day): 0.2 mg/dL
Ca (72 h, time 3 day): 11.1 mg/dL
Cl (72 h, time 3 day): 104.8 meq/L
DBIL (72 h, time 3 day): 0.012 mg/dL
GLC (72 h, time 3 day): 186 mg/dL
IP (72 h, time 3 day): 7.9 mg/dL
K (72 h, time 3 day): 4 meq/L
LDH (72 h, time 3 day): 72.6 IU/L
Na (72 h, time 3 day): 143.6 meq/L
PL (72 h, time 3 day): 158.6 mg/dL
RALB (72 h, time 3 day): 2.6 g/dL
TBIL (72 h, time 3 day): 0.05 mg/dL
TC (72 h, time 3 day): 83 mg/dL
TG (72 h, time 3 day): 100.8 mg/dL
TP (72 h, time 3 day): 5.6 g/dL
gamma-GTP (72 h, time 3 day): 0.8 IU/L
TERMINAL_BW ([…], time 7 day): 271.6 g
TERMINAL_BW ([…], time 14 day): 331.8 g
TERMINAL_BW ([…], time 28 day): 390.1 g
APTT ([…], time 7 day): 17 s
Bas ([…], time 7 day): 0.2%
Eos ([…], time 7 day): 0.6%
Fbg ([…], time 7 day): 265.6 mg/dL
Hb ([…], time 7 day): 13.6 g/dL
Ht ([…], time 7 day): 40.6%
Lym ([…], time 7 day): 81.8%
MCH ([…], time 7 day): 21.5 pg
MCHC ([…], time 7 day): 33.6%
MCV ([…], time 7 day): 63.9 fL
Mono ([…], time 7 day): 2.2%
Neu ([…], time 7 day): 14.4%
PT ([…], time 7 day): 15.6 s
Plat ([…], time 7 day): 107.6 x10_4/uL
RBC ([…], time 7 day): 636 x10_4/ul
Ret ([…], time 7 day): 6.5%
WBC ([…], time 7 day): 91.6 x10_2/uL
APTT ([…], time 14 day): 16.5 s
Bas ([…], time 14 day): 0%
Eos ([…], time 14 day): 0.8%
Fbg ([…], time 14 day): 262.8 mg/dL
Hb ([…], time 14 day): 14.2 g/dL
Ht ([…], time 14 day): 41.5%
Lym ([…], time 14 day): 81.4%
MCH ([…], time 14 day): 20.7 pg
MCHC ([…], time 14 day): 34.2%
MCV ([…], time 14 day): 60.7 fL
Mono ([…], time 14 day): 3%
Neu ([…], time 14 day): 14.2%
PT ([…], time 14 day): 15.6 s
Plat ([…], time 14 day): 116.6 x10_4/uL
RBC ([…], time 14 day): 683.8 x10_4/ul
Ret ([…], time 14 day): 4.5%
WBC ([…], time 14 day): 103.2 x10_2/uL
APTT ([…], time 28 day): 17.6 s
Bas ([…], time 28 day): 0.4%
Eos ([…], time 28 day): 1.6%
Fbg ([…], time 28 day): 274.4 mg/dL
Hb ([…], time 28 day): 15.8 g/dL
Ht ([…], time 28 day): 45.6%
Lym ([…], time 28 day): 80.6%
MCH ([…], time 28 day): 19.9 pg
MCHC ([…], time 28 day): 34.5%
MCV ([…], time 28 day): 57.5 fL
Mono ([…], time 28 day): 2%
Neu ([…], time 28 day): 14.8%
PT ([…], time 28 day): 15.9 s
Plat ([…], time 28 day): 91.9 x10_4/uL
RBC ([…], time 28 day): 792.8 x10_4/ul
Ret ([…], time 28 day): 2.3%
WBC ([…], time 28 day): 101.1 x10_2/uL
KIDNEY_L ([…], time 7 day): 1.1 g
KIDNEY_R ([…], time 7 day): 1.1 g
KIDNEY_TOTAL ([…], time 7 day): 2.3 g
KIDNEY_L ([…], time 14 day): 1.3 g
KIDNEY_R ([…], time 14 day): 1.3 g
KIDNEY_TOTAL ([…], time 14 day): 2.7 g
KIDNEY_L ([…], time 28 day): 1.5 g
KIDNEY_R ([…], time 28 day): 1.4 g
KIDNEY_TOTAL ([…], time 28 day): 2.9 g
LIVER ([…], time 7 day): 14 g
LIVER ([…], time 14 day): 16.6 g
LIVER ([…], time 28 day): 16.7 g
A/G ([…], time 7 day): 0.8
ALP ([…], time 7 day): 1827.8 IU/L
ALT ([…], time 7 day): 37.6 IU/L
AST ([…], time 7 day): 64.2 IU/L
BUN ([…], time 7 day): 18 mg/dL
CRE ([…], time 7 day): 0.2 mg/dL
Ca ([…], time 7 day): 11 mg/dL
Cl ([…], time 7 day): 104.8 meq/L
DBIL ([…], time 7 day): 0.018 mg/dL
GLC ([…], time 7 day): 192.8 mg/dL
IP ([…], time 7 day): 7.8 mg/dL
K ([…], time 7 day): 4.3 meq/L
LDH ([…], time 7 day): 58.4 IU/L
Na ([…], time 7 day): 142 meq/L
PL ([…], time 7 day): 158 mg/dL
RALB ([…], time 7 day): 2.7 g/dL
TBIL ([…], time 7 day): 0.05 mg/dL
TC ([…], time 7 day): 78 mg/dL
TG ([…], time 7 day): 120.8 mg/dL
TP ([…], time 7 day): 5.9 g/dL
gamma-GTP ([…], time 7 day): 0.6 IU/L
A/G ([…], time 14 day): 0.8
ALP ([…], time 14 day): 1412.8 IU/L
ALT ([…], time 14 day): 37.6 IU/L
AST ([…], time 14 day): 63.6 IU/L
BUN ([…], time 14 day): 17.4 mg/dL
CRE ([…], time 14 day): 0.2 mg/dL
Ca ([…], time 14 day): 10.7 mg/dL
Cl ([…], time 14 day): 103.4 meq/L
DBIL ([…], time 14 day): 0.02 mg/dL
GLC ([…], time 14 day): 192.4 mg/dL
IP ([…], time 14 day): 7.6 mg/dL
K ([…], time 14 day): 4.1 meq/L
LDH ([…], time 14 day): 82.6 IU/L
Na ([…], time 14 day): 141.6 meq/L
PL ([…], time 14 day): 163 mg/dL
RALB ([…], time 14 day): 2.7 g/dL
TBIL ([…], time 14 day): 0.05 mg/dL
TC ([…], time 14 day): 81.8 mg/dL
TG ([…], time 14 day): 142 mg/dL
TP ([…], time 14 day): 6 g/dL
gamma-GTP ([…], time 14 day): 0.6 IU/L
A/G ([…], time 28 day): 0.8
ALP ([…], time 28 day): 1021.6 IU/L
ALT ([…], time 28 day): 37.2 IU/L
AST ([…], time 28 day): 59.4 IU/L
BUN ([…], time 28 day): 17.8 mg/dL
CRE ([…], time 28 day): 0.2 mg/dL
Ca ([…], time 28 day): 10.6 mg/dL
Cl ([…], time 28 day): 105 meq/L
DBIL ([…], time 28 day): 0.014 mg/dL
GLC ([…], time 28 day): 191.2 mg/dL
IP ([…], time 28 day): 6.7 mg/dL
K ([…], time 28 day): 4 meq/L
LDH ([…], time 28 day): 52 IU/L
Na ([…], time 28 day): 142.8 meq/L
PL ([…], time 28 day): 156.6 mg/dL
RALB ([…], time 28 day): 2.8 g/dL
TBIL ([…], time 28 day): 0.046 mg/dL
TC ([…], time 28 day): 77.4 mg/dL
TG ([…], time 28 day): 123 mg/dL
TP ([…], time 28 day): 6.2 g/dL
gamma-GTP ([…], time 28 day): 0.6 IU/L

Source: ChEMBL document CHEMBL3885861, “Open TG-GATES”
